Converted amounts (≈) assume the structure as drawn. Like-named read-outs stand apart in the source and are kept apart here.
What was measured:
Type in all cases: cell-based
C. difficile ATCC43598 = assay: MIC, broth microdilution; settings: Clostridioides difficile, C. difficile ATCC43598
C. difficile ATCC43255 = assay: MIC, broth microdilution; settings: Clostridioides difficile, C. difficile ATCC43255
C. difficile BAA-1870 = assay: MIC, broth microdilution; settings: Clostridioides difficile, BAA1870, C. difficile BAA-1870 (NAP1, ribotype 27)
C. difficile BAA-1804 = assay: MIC, broth microdilution; settings: Clostridioides difficile, BAA1804, C. difficile BAA-1804
C. difficile BAA-1803 = assay: MIC, broth microdilution; settings: Clostridioides difficile, BAA1803, C. difficile BAA-1803 (NAP1, ribotype 027)
C. difficile BAA-1801 = assay: MIC, broth microdilution; settings: Clostridioides difficile, BAA1801, C. difficile BAA-1801 (nontoxigenic)
C. difficile BAA-1812 = assay: MIC, broth microdilution; settings: Clostridioides difficile, BAA1812, C. difficile BAA-1812
C. difficile BAA-1814 = assay: MIC, broth microdilution; settings: Clostridioides difficile, BAA1814, C. difficile BAA-1814
C. difficile NR49310 = assay: MIC, broth microdilution; settings: Clostridioides difficile, C. difficile NR49310 (NAP7, ribotype 078)
C. difficile NR49294 = assay: MIC, broth microdilution; settings: Clostridioides difficile, C. difficile NR49294 (NAP4, ribotype 014)
C. difficile NR49305 = assay: MIC, broth microdilution; settings: Clostridioides difficile, C. difficile NR49305 (NAP6, ribotype 002)
C. difficile NR49318 = assay: MIC, broth microdilution; settings: Clostridioides difficile, C. difficile NR49318 (NAP11, ribotype 106)
C. difficile NR49292 = assay: MIC, broth microdilution; settings: Clostridioides difficile, C. difficile NR49292 (NAP2, ribotype 001_072)
C. difficile NR49302 = assay: MIC, broth microdilution; settings: Clostridioides difficile, C. difficile NR49302 (NAP4, ribotype 020)
[1] = system: Bacteroides fragilis HM-709; assay: MIC against common gut bacteria; settings: HM709; Bacteroides fragilis HM-709; read-out: MIC
Bacteroides fragilis = assay: MIC against common gut bacteria; settings: read-out: MIC
Bacteroides ovatus = assay: MIC against common gut bacteria; settings: read-out: MIC
Bacteroides vulgatus = assay: MIC against common gut bacteria; settings: Phocaeicola vulgatus; Bacteroides vulgatus; read-out: MIC
Bacteroides eggerthii = assay: MIC against common gut bacteria; settings: read-out: MIC
Bacteroides caccae = assay: MIC against common gut bacteria; settings: read-out: MIC
[2] = system: Bifidobacterium longum HM-846; assay: MIC against common gut bacteria; settings: HM846; Bifidobacterium longum HM-846; read-out: MIC
[3] = system: Corynebacterium sp. HM-784; assay: MIC against common gut bacteria; settings: SP.HM784; Corynebacterium sp. HM-784; incubated aerobically; read-out: MIC
Method: Minimally-inhibitory concentrations. MICs for C. difficile strains and the common gut bacteria were determined using broth microdilution techniques as reported earlier using brucella broth supplemented with hemin and vitamin K or supplemented BHIS broth (Babakhani et al., J Antimicrob Chemother 2013, 68(3), 515). Lactobacillus MRS broth was used for lactobacillus strains. […] All incubations unless specified otherwise were carried out at 24 or 48 h at 37° C. in an anaerobic chamber (Whitley DG250 workstation, Microbiology International, Frederick, MD). Corynebacterium and lactobacillus species were incubated aerobically.

[4] = system: Fusobacterium nucleatum HM-992; assay: MIC against common gut bacteria; settings: HM992; Fusobacterium nucleatum HM-992; read-out: MIC
[5] = system: Lactobacillus reuteri HM-102; assay: MIC against common gut bacteria
[6] = system: Lactobacillus gasseri HM-644; assay: MIC against common gut bacteria
Veillonella sp. HM-49 = assay: MIC against common gut bacteria
Eubacterium sp. HM-178 = assay: MIC against common gut bacteria; settings: SP.HM178

Work on `FC(F)(F)c1ccc(Oc2ccc(-c3noc(-c4ccc5[nH]ccc5c4)n3)cc2)cc1` [Compound 1] yielded an MIC (C. difficile ATCC43598; 24 h, read-out: MIC at 24 h) of 1 µg/mL (≈ 2.37 µM), an MIC (C. difficile ATCC43598; 48 h, read-out: MIC at 48 h) of 1 µg/mL (≈ 2.37 µM) and an MIC (C. difficile ATCC43255; 24 h, read-out: MIC at 24 h) of 2 µg/mL (≈ 4.75 µM). It also gave an MIC (C. difficile ATCC43255; 48 h, read-out: MIC at 48 h) of 2 µg/mL (≈ 4.75 µM), an MIC (C. difficile BAA-1870; 24 h, read-out: MIC at 24 h) of 2 µg/mL (≈ 4.75 µM) and an MIC (C. difficile BAA-1870; 48 h, read-out: MIC at 48 h) of 4 µg/mL (≈ 9.49 µM). For the same compound, the MIC (C. difficile BAA-1804; 24 h, read-out: MIC at 24 h) was 2 µg/mL (≈ 4.75 µM), the MIC (C. difficile BAA-1804; 48 h, read-out: MIC at 48 h) was 2 µg/mL (≈ 4.75 µM) and the MIC (C. difficile BAA-1803; 24 h, read-out: MIC at 24 h) was 1 µg/mL (≈ 2.37 µM). The MIC (C. difficile BAA-1803; 48 h, read-out: MIC at 48 h) was 2 µg/mL (≈ 4.75 µM), the MIC (C. difficile BAA-1801; 24 h, read-out: MIC at 24 h) was 2 µg/mL (≈ 4.75 µM) and the MIC (C. difficile BAA-1801; 48 h, read-out: MIC at 48 h) was 4 µg/mL (≈ 9.49 µM). For the same compound, the MIC (C. difficile BAA-1812; 24 h, read-out: MIC at 24 h) was 2 µg/mL (≈ 4.75 µM), the MIC (C. difficile BAA-1812; 48 h, read-out: MIC at 48 h) was 2 µg/mL (≈ 4.75 µM) and the MIC (C. difficile BAA-1814; 24 h, read-out: MIC at 24 h) was 2 µg/mL (≈ 4.75 µM). For the same compound, the MIC (C. difficile BAA-1814; 48 h, read-out: MIC at 48 h) was 4 µg/mL (≈ 9.49 µM), the MIC (C. difficile NR49310; 24 h, read-out: MIC at 24 h) was 2 µg/mL (≈ 4.75 µM) and the MIC (C. difficile NR49310; 48 h, read-out: MIC at 48 h) was 2 µg/mL (≈ 4.75 µM). It also gave an MIC (C. difficile NR49294; 24 h, read-out: MIC at 24 h) of 1 µg/mL (≈ 2.37 µM), an MIC (C. difficile NR49294; 48 h, read-out: MIC at 48 h) of 1 µg/mL (≈ 2.37 µM) and an MIC (C. difficile NR49305; 24 h, read-out: MIC at 24 h) of 2 µg/mL (≈ 4.75 µM). For the same compound, the MIC (C. difficile NR49305; 48 h, read-out: MIC at 48 h) was 4 µg/mL (≈ 9.49 µM), the MIC (C. difficile NR49318; 24 h, read-out: MIC at 24 h) was 2 µg/mL (≈ 4.75 µM) and the MIC (C. difficile NR49318; 48 h, read-out: MIC at 48 h) was 2 µg/mL (≈ 4.75 µM). The MIC (C. difficile NR49292; 24 h, read-out: MIC at 24 h) was 1 µg/mL (≈ 2.37 µM), the MIC (C. difficile NR49292; 48 h, read-out: MIC at 48 h) was 2 µg/mL (≈ 4.75 µM) and the MIC (C. difficile NR49302; 24 h, read-out: MIC at 24 h) was 1 µg/mL (≈ 2.37 µM). For the same compound, the MIC (C. difficile NR49302; 48 h, read-out: MIC at 48 h) was 2 µg/mL (≈ 4.75 µM), the MIC [1] was 2 µg/mL (≈ 4.75 µM) and the MIC (Bacteroides fragilis) was 4 µg/mL (≈ 9.49 µM). It also gave an MIC (Bacteroides ovatus) of 4 µg/mL (≈ 9.49 µM), an MIC (Bacteroides vulgatus) of 2 µg/mL (≈ 4.75 µM) and an MIC (Bacteroides eggerthii) of 2 µg/mL (≈ 4.75 µM). For the same compound, the MIC (Bacteroides caccae) was 4 µg/mL (≈ 9.49 µM), the MIC [2] was 0.2 µg/mL (≈ 0.475 µM) and the MIC [3] was 2 µg/mL (≈ 4.75 µM). The MIC [4] was 1 µg/mL (≈ 2.37 µM), the MIC ([5]; Limosilactobacillus reuteri, HM102, Lactobacillus reuteri HM-102, read-out: MIC) was greater than 12 µg/mL and the “Activity against Lactobacillus reuteri” value ([5]; in words) was “not active”. The MIC ([6]; HM644, Lactobacillus gasseri HM-644, read-out: MIC) was greater than 12 µg/mL, the “Activity against Lactobacillus gasseri” value ([6]; in words) was “not active” and the MIC (Veillonella sp. HM-49; SP.HM49, Veillonella sp. HM-49, read-out: MIC) was greater than 12 µg/mL. For the same compound, the “Activity against Veillonella sp.” value (Veillonella sp. HM-49; in words) was “not active” and the MIC (Eubacterium sp. HM-178) was 2 µg/mL (≈ 4.75 µM).
